# From patent publication US5516756A, “Aza cyclohexapeptide compounds” (Merck & Co., Inc., priority 1994, dated 1996)
# What was measured:
# [1] = tested on: Candida parapsilosis (MY 1010); assay type: cell-based; settings: MY 1010, 24 h
# Procedure: (§1) The compounds of the present invention are active against many fungi and particularly against Candida species. The antifungal properties may be illustrated with the minimum fungicidal concentration (MFC) determination against certain Candida organisms in a microbroth dilution assay carded out in a Yeast Nitrogen Base (DIFCO) medium with 1% dextrose (YNBD).
# (§2) In a representative assay, compounds were solubilized in 100% dimethyl sulfoxide (DMSO) at an initial concentration of 5 mg/ml. Once dissolved, the drug stock was brought to a concentration of 512 μg/ml by dilution in water such that the final DMSO concentration was about 10 percent. The solution was then dispensed via a multichannel pipetter into the first column of a 96-well plate (each well containing 0.075 ml of YNBD), resulting in a drug concentration of 256 μg/ml. Compounds in the first column were diluted 2-fold across the rows yielding final drug concentration ranging from 256 μg/ml to 0.12 μg/ml.
# (§3) Four-hour broth cultures of organisms to be tested were adjusted using a spectrophotometer at 600 nm to equal a 0.5 McFarland Standard. This suspension was diluted 1:100 in YNBD to yield a cell concentration of 1-5×10^4 colony forming units (CFU)/ml. Aliquots of the suspension (0.075 ml) were inoculated into each well of the microtiter plate resulting in a final cell inoculum of 5-25×10^3 CFU/ml and final drug concentrations ranging from 128 μg/ml to 0.06 μg/ml. Each assay included one row for drug-free control wells and one row for cell-free control wells.
# (§4) After 24 hours of incubation, the microtiter plates were shaken gently on a shaker to resuspend the cells. The MIC-2000 inoculator was used to transfer a 1.5 microliter sample from each well of the 96-well microtiter plate to a single reservoir inoculum plate containing Sabouraud dextrose agar (SDA). The inoculated SDA plates were incubated for 24 hours at 35° C. and then read for minimum fungicidal concentration (MFC). MFC is defined as the lowest concentration of drug showing no growth or less than 4 colonies per spot. […]
# [2] = tested on: Candida tropicalis (MY 1012); assay type: cell-based; settings: MY 1012, 24 h
# Procedure: as §1, §2, §3, §4
# [3] = tested on: Candida albicans (MY 1055); assay type: cell-based; settings: MY 1055, 24 h
# Procedure: as §1, §2, §3, §4
# Candida albicans MY 1055 = experiment: In vivo effectiveness: kidney CFU in mice infected I.V. with Candida albicans; settings: 0.07 mg/kg i.p. twice daily for four consecutive days; female DBA/2 mice; CFU per gram of kidneys after seven days
# Procedure: The in vivo effectiveness of the compounds against fungi may be seen in the following assay.
# Growth from an overnight SDA culture of Candida albicans MY 1055 was suspended in sterile saline and the cell concentration determined by hemacytometer count and the cell suspension adjusted to 3.75×10^5 cells/ml. Then 0.2 milliliter of this suspension was administered I.V. in the tail vein of mice so that the final inoculum is 7.5×10^4 cells/mouse.
# The assay was then carried out by administering aqueous solutions of Compound I at various concentrations intraperitoneally (I.P.), twice daily (b.i.d.) for four consecutive days to 18 to 20 gram female DB A/2 mice, which previously had been infected with Candida albicans (MY 1055) in the manner described above. Distilled water was administered I.P. to C. albicans challenged mice as controls. After seven days, the mice were sacrificed by carbon dioxide gas, paired kidneys were removed aseptically and placed in sterile polyethylene bags containing 5 milliliters of sterile saline. The kidneys were homogenized in the bags, serially diluted in sterile saline and aliquots spread on the surface of SDA plates. The plates were incubated at 35° C. for 48 hours and yeast colonies enumerated for determination of colony forming units (CFU) per gram of kidneys. […]
smiles,measurement,setting,value
CCC(C)CC(C)CCCCCCCCC(=O)N[C@H]1C[C@@H](O)[C@@H](NC(=O)[C@@H](N)CN)NC(=O)[C@@H]2[C@@H](O)CCN2C(=O)[C@H]([C@H](O)CCN)NC(=O)[C@H]([C@H](O)[C@@H](O)c2ccc(O)cc2)NC(=O)[C@@H]2C[C@@H](O)CN2C(=O)[C@H]([C@@H](C)O)NC1=O (stereo partly shown) [Compound I],minimum fungicidal concentration (MFC),[1],0.5 µg/mL
same,minimum fungicidal concentration (MFC),[2],1 µg/mL
same,minimum fungicidal concentration (MFC),[3],1 µg/mL
same,reduction of recoverable Candida CFUs,Candida albicans MY 1055,greater than 99%
